Measurements taken from patent publication US20150110853A1, “TREATMENT OF RADICAL PROSTATECTOMY-INDUCED ERECTILE DYSFUNCTION” (PANACEA PHARMACEUTICALS, priority 2013, published 2015).

Tests used:
[1] = tested on: veratridine-induced sodium channel opening; test: veratridine-induced sodium channel opening and related cell death; assay type: cell-based
Experimental: (§1) PAN-811 was originally developed for cancer therapy due to its ability to inhibit ribonucleotide reductase, a key enzyme required for DNA synthesis. […] PAN-811 was administered intracerebroventricularly (i.c.v.) at a dose of 50 μg per rat at 1 h after arterial occlusion. […] The effect of a single intravenous (i. v.) bolus injection of PAN-811 was also investigated. […] Mechanistically PAN-811 prevents glutamate-induced excitatory cytotoxicity, veratridine-induced sodium channel opening and related cell death, and staurosporine-induced apoptosis. […] In culture, ischemic condition results in a 19-fold increase in intracellular free calcium. PAN-811 at a dose of 5 μM reduced this elevated level by 72%. […] In addition, PAN-811 effectively suppresses oxidative stress in many ways. […] Importantly, PAN-811 manifested as a free radical scavenger in a cell free system where PAN-811 reduced 500 μM of a stable free radical diphenylpicrylhydrazyl by 70%. Taken together, PAN-811 has manifested as a potent neuroprotectant with dual drug targets—oxidative stress and free calcium.

[2] = tested on: staurosporine-induced apoptosis; test: staurosporine-induced apoptosis; assay type: cell-based
Experimental: as §1

[3] = tested on: hypoxia-induced neuronal cell death; settings: 1.2μM; cited from earlier work
[4] = tested on: ischemic neurodegeneration; settings: 0.45 μM; cited from earlier work
[5] = tested on: human Alzheimer's disease-derived and age-matched olfactory neuroepithelial cells; test: oxidative stress-induced cell death of olfactory neuroepithelial cells; assay type: cell-based; settings: via suppression of intracellular reactive oxygen species
Experimental: as §1

[6] = tested on: cultured neuronal cells; assay type: cell-based
Experimental: as §1

[7] = biological target: T1, ribonucleotide reductase (Homo sapiens, UniProt P31350); settings: cited from earlier work
T1 sequence (P31350 1-389): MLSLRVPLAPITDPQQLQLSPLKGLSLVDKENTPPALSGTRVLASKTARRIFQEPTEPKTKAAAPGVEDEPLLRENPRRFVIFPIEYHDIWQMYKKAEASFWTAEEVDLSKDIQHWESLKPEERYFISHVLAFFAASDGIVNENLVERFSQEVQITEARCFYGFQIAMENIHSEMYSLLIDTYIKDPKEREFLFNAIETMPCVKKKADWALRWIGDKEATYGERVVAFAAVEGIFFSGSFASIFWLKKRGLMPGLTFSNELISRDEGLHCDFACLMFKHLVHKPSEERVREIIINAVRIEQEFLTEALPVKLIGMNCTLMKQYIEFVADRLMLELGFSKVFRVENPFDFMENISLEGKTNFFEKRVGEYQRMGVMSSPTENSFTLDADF
T1 sequence (P23921 1-792 partner): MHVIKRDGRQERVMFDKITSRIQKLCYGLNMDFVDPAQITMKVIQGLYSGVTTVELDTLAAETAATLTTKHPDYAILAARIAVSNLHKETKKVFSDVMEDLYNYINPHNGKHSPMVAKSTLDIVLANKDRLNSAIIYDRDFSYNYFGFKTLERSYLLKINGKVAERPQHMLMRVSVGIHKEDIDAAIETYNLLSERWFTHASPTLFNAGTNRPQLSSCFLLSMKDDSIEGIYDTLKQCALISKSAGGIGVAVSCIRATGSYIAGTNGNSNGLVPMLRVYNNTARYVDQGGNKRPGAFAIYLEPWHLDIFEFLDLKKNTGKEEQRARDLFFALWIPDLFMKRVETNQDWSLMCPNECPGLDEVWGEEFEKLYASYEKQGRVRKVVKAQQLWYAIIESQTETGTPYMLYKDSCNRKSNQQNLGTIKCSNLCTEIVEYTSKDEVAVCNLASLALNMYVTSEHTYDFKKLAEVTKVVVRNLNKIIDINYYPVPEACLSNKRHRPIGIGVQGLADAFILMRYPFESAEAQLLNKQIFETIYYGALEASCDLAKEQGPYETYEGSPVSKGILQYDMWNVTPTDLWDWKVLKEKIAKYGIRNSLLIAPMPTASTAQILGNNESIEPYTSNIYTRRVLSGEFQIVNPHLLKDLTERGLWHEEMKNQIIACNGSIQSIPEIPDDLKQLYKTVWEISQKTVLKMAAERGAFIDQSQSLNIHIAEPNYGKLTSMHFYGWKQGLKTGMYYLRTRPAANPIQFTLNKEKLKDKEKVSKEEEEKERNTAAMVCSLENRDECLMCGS

For `NC(=S)N/N=C/c1ncccc1N` [PAN-811, 3-aminopyridine-2-carboxaldehyde thiosemicarbazone], the “prevention of veratridine-induced sodium channel opening and related cell death” value [1] is listed as “prevents”, the “prevention of staurosporine-induced apoptosis” value [2] is listed as “prevents” and the “halt of hypoxia-induced neuronal cell death” value [3] is listed as “completely halted”. The “block of ischemic neurodegeneration” value [4] was “fully blocked”, the “inhibition of oxidative stress-induced cell death” value [5] was “inhibited” and the “prevention of glutamate-induced excitatory cytotoxicity” value [6] was “prevents”. For the same compound, the “inhibition of ribonucleotide reductase” value [7] was “inhibit”.
